Source: patent publication US7973181B2, “Hydroxamic acid derivatives as inhibitors of HDAC enzymatic activity” (Chroma Therapeutics Ltd., priority 2005, dated 2011)

Experiments:
[1] = molecular target: histone deacetylase activity (HeLa nuclear extract); assay: HDAC fluorescent activity assay (Biomol Fluor de Lys), HeLa nuclear extract; type: biochemical; conditions: Fluor de Lys substrate
Method: The ability of compounds to inhibit histone deacetylase activities was measured using the commercially available HDAC fluorescent activity assay from Biomol. In brief, the Fluor de Lys™ substrate, a lysine with an epsilon-amino acetylation, is incubated with the source of histone deacetylase activity (HeLa nuclear extract) in the presence or absence of inhibitor.
Deacetylation of the substrate sensitises the substrate to Fluor de Lys™ developer, which generates a fluorophore. Thus, incubation of the substrate with a source of HDAC activity results in an increase in signal that is diminished in the presence of an HDAC inhibitor.
Data are expressed as a percentage of the control, measured in the absence of inhibitor, with background signal being subtracted from all samples, as follows: — % activity=((S^i−B)/(S^o−B))×100 where S^i is the signal in the presence of substrate, enzyme and inhibitor, S^o is the signal in the presence of substrate, enzyme and the vehicle in which the inhibitor is dissolved, and B is the background signal measured in the absence of enzyme.
(§1) IC50 values were determined by non-linear regression analysis, after fitting the results of eight data points to the equation for sigmoidal dose response with variable slope (% activity against log concentration of compound), using Graphpad Prism software.
Histone deacetylase activity from crude nuclear extract derived from HeLa cells was used for screening. The preparation, purchased from 4C (Seneffe, Belgium), was prepared from HeLa cells harvested whilst in exponential growth phase. The nuclear extract is prepared according to Dignam JD1983 Nucl. Acid. Res. 11, 1475-1489, snap frozen in liquid nitrogen and stored at −80° C. The final buffer composition was 20 mM Hepes, 100 mM KCl, 0.2 mM EDTA, 0.5 mM DTT, 0.2 mM PMSF and 20% (v/v) glycerol.
Results of testing the compounds of the examples in this assay are given in the second column of Table 1 below.

[2] = test system: Hela; assay: Cell inhibition assay (SRB cell viability), Hela; type: cell-based; conditions: 72 h, Hela cells
Method: (§2) The corresponding cancer cell lines (Hela, U937 and HUT) growing in log phase were harvested and seeded at 1000 cells/well (200 ul final volume) into 96-well tissue culture plates. Following 24 h of cell growth cells were treated with compounds (final concentration of 20 uM). Plates were then re-incubated for a further 72 h before a sulphorhodamine B (SRB) cell viability assay was conducted according to Skehan 1990 J Natl Canc Inst 82, 1107-1112.
(§3) Data were expressed as a percentage inhibition of the control, measured in the absence of inhibitor, as follows: — % inhibition=100−((S^i/S^o)×100) where S^i is the signal in the presence of inhibitor and S^o is the signal in the presence of DMSO.
as §1
(§4) Results of testing the compounds of the examples in this assay are given in the third- fifth columns of Table 1.

[3] = test system: HUT; assay: Cell inhibition assay (SRB cell viability), HUT; type: cell-based
Method: as §2, §3, §1, §4

[4] = test system: U937; assay: Cell inhibition assay (SRB cell viability), U937; type: cell-based; conditions: U937 cells
Method: as §2, §3, §1, §4

| SMILES | IC50 [1] | IC50 ([2]; Homo sapiens, HeLa) | IC50 ([3]; 72 h, HUT cells) | IC50 ([4]; Homo sapiens, U-937, 72 h) | IC50 [2] | IC50 ([3]; HUT cells, 72 h) | IC50 ([4]; 72 h) |
| --- | --- | --- | --- | --- | --- | --- | --- |
| CC(=O)N[C@@H](Cc1ccc(NC(=O)CCCCCCC(=O)NO)cc1)C(=O)OC1CCCC1 [Example 1, (S)-2-Acetylamino-3-[4-(7-hydroxycarbamoyl-heptanoylamino)-phenyl]-propionic acid cyclopentyl ester] | 101 to 1000 nM | > 3300 nM | 330 to 3300 nM | 330 to 3300 nM |  |  |  |
| CC(=O)N[C@@H](Cc1ccc(NC(=O)CCCCCCC(=O)NO)cc1)C(=O)O [Example 2, (S)-2-Acetylamino-3-[4-(7-hydroxycarbamoyl-heptanoylamino)-phenyl]-propionic acid] | 101 to 1000 nM | > 3300 nM | > 3300 nM | > 3300 nM |  |  |  |
| CC(=O)N[C@H](Cc1ccc(NC(=O)CCCCCCC(=O)NO)cc1)C(=O)OC1CCCC1 [Example 3, (R)-2-Acetylamino-3-[4-(7-hydroxycarbamoyl-heptanoylamino)-phenyl]-propionic acid cyclopentyl ester] | 101 to 1000 nM | > 3300 nM | 330 to 3300 nM | > 3300 nM |  |  |  |
| CC(=O)N[C@H](Cc1ccc(NC(=O)CCCCCCC(=O)NO)cc1)C(=O)O [Example 4, (R)-2-Acetylamino-3-[4(7-hydroxycarbamoyl-heptanoylamino)-phenyl]-propionic acid] | > 1000 nM | > 3300 nM | > 3300 nM | > 3300 nM |  |  |  |
| N[C@@H](CCOc1cccc(NC(=O)CCCCCCC(=O)NO)c1)C(=O)OC1CCCC1 [Example 5, (S)-2-Amino-4-[3-(7-hydroxycarbamoyl-heptanoylamino)-phenoxy]-butyric acid cyclopentyl ester] | < 100 nM | 330 to 3300 nM | 330 to 3300 nM | 330 to 3300 nM |  |  |  |
| N[C@@H](CCOc1cccc(NC(=O)CCCCCCC(=O)NO)c1)C(=O)O [Example 6, (S)-2-Amino-4-[3-(7-hydroxycarbamoyl-heptanoylamino)-phenoxy]-butyric acid] | 101 to 1000 nM | > 3300 nM | 330 to 3300 nM | 330 to 3300 nM |  |  |  |
| N[C@@H](CCOc1ccc(NC(=O)CCCCCCC(=O)NO)cc1)C(=O)OC1CCCC1 [Example 7, (S)-2-Amino-4-[4-(7-hydroxycarbamoyl-heptanoylamino)-phenoxy]-butyric acid cyclopentyl ester] | 101 to 1000 nM | 330 to 3300 nM | 330 to 3300 nM | 330 to 3300 nM |  |  |  |
| N[C@@H](CCOc1ccc(NC(=O)CCCCCCC(=O)NO)cc1)C(=O)O [Example 8, (S)-2-Amino-4-[4-(7-hydroxycarbamoyl-heptanoylamino)-phenoxy]-butyric Acid] | 101 to 1000 nM |  |  |  |  |  |  |
| N[C@@H](CCOc1ccc(CNCc2ccc3cc(C(=O)NO)sc3c2)cc1)C(=O)OC1CCCC1 [Example 9, (S)-2-Amino-4-(4-{[(2-hydroxycarbamoyl-benzo[b]thiophen-6-ylmethyl)-amino]-methyl}-phenoxy)-butyric acid cyclopentyl ester] | < 100 nM | < 330 nM | < 330 nM | < 330 nM |  |  |  |
| N[C@@H](CCOc1ccc(CNCc2ccc3cc(C(=O)NO)sc3c2)cc1)C(=O)O [Example 10, (S)-2-Amino-4-(4-{[(2-hydroxycarbamoyl-benzo[b]thiophen-6-ylmethyl)-amino]-methyl}-phenoxy)-butyric acid] | < 100 nM |  |  |  |  |  |  |
| N[C@@H](CCCOc1ccc(CNCc2ccc3cc(C(=O)NO)sc3c2)cc1)C(=O)OC1CCCC1 [Example 11, (S)-2-Amino-5-(4-{[(2-hydroxycarbamoyl-benzo[b]thiophen-6-ylmethyl)-amino]-methyl}-phenoxy)-pentanoic acid cyclopentyl ester] | < 100 nM | < 330 nM | < 330 nM | < 330 nM |  |  |  |
| N[C@@H](CCCOc1ccc(CNCc2ccc3cc(C(=O)NO)sc3c2)cc1)C(=O)O [Example 12, (S)-2-Amino-5-(4-{[(2-hydroxycarbamoyl-benzo[b]thiophen-6-ylmethyl)-amino]-methyl}-phenoxy)-pentanoic acid] | < 100 nM |  |  |  |  |  |  |
| N[C@H](CCOc1ccc(CNCc2ccc3cc(C(=O)NO)sc3c2)cc1)C(=O)OC1CCCC1 [Example 13, (R)-2-Amino-4-(4-{[(2-hydroxycarbamoyl-benzo[b]thiophen-6-ylmethyl)-amino]-methyl}phenoxy)-butyric acid cyclopentyl ester] | < 100 nM | < 330 nM | < 330 nM | < 330 nM |  |  |  |
| N[C@H](CCCOc1ccc(CNCc2ccc3cc(C(=O)NO)sc3c2)cc1)C(=O)OC1CCCC1 [Example 15, (R)-2-Amino-5-(4-{[(2-hydroxycarbamoyl-benzo[b]thiophen-6-ylmethyl)-amino]-methyl}-phenoxy)-pentanoic acid cyclopentyl ester] | < 100 nM | 330 to 3300 nM | < 330 nM | < 330 nM |  |  |  |
| N[C@H](CCCOc1ccc(CNCc2ccc3cc(C(=O)NO)sc3c2)cc1)C(=O)O [Example 16, (R)-2-Amino-5-(4-{[(2-hydroxycarbamoyl-benzo[b]thiophen-6-ylmethyl)-amino]-methyl}-phenoxy)-pentanoic acid] | < 100 nM |  |  |  |  |  |  |
| N[C@@H](CCCOc1ccc(CNCc2ccc3cc(C(=O)NO)sc3c2)cc1)C(=O)OC1CCCC1 [Example 17, (S)-2-Amino-5-(4-{[(2-hydroxycarbamoyl-benzo[b]thiophen-6-ylmethyl)-amino]-methyl}-phenoxy)-pentanoic acid cyclopentyl ester] | < 100 nM |  |  |  | 330 to 3300 nM | 330 to 3300 nM | 330 to 3300 nM |
| N[C@@H](CCCOc1ccc(CNCc2ccc3cc(C(=O)NO)sc3c2)cc1)C(=O)O [Example 18, (S)-2-Amino-5-(4-{[(2-hydroxycarbamoyl-benzo[b]thiophen-6-ylmethyl)-amino]-methyl}-phenoxy)-pentanoic acid] | 101 to 1000 nM |  |  |  |  |  |  |
| COc1cc(CNCc2ccc3cc(C(=O)NO)sc3c2)ccc1OCCC[C@H](N)C(=O)OC1CCCC1 [Example 19, (S)-2-Amino-5-(4-{[(2-hydroxycarbamoyl-benzo[b]thiophen-6-ylmethyl)-amino]-methyl}-2-methoxyphenoxy)-pentanoic acid cyclopentyl ester] | < 100 nM | 330 to 3300 nM | 330 to 3300 nM | 330 to 3300 nM |  |  |  |
| COc1cc(CNCc2ccc3cc(C(=O)NO)sc3c2)ccc1OCCC[C@H](N)C(=O)O [Example 20, (S)-2-Amino-5-(4-{[(2-hydroxycarbamoyl-benzo[b]thiophen-6-ylmethyl)-amino]-methyl}-2-methoxyphenoxy)-pentanoic acid] | < 100 nM |  |  |  |  |  |  |
| O=C(NO)c1cc2ccc(CNCc3ccc(OCCC[C@H](NC4CCCCC4)C(=O)O)cc3)cc2s1 [Example 23, (S)-2-Cyclohexylamino-5-(4-{[(2-hydroxycarbamoyl-benzo[b]thiophen-6-ylmethyl)-amino]-methyl}-phenoxy)-pentanoic acid] | < 100 nM |  |  |  |  |  |  |
| N[C@H](C(=O)O)c1ccc(Oc2ccc(CNCc3ccc4cc(C(=O)NO)sc4c3)cc2)cc1 [Example 25, (S)-Amino-[4-(4-{[(2-hydroxycarbamoyl-benzo[b]thiophen-6-ylmethyl)-amino]-methyl}-phenoxy)-phenyl]-acetic acid] | < 100 nM |  |  |  |  |  |  |
| N[C@@H](Cc1ccc(Oc2ccc(CNCc3ccc4cc(C(=O)NO)sc4c3)cc2)cc1)C(=O)O [Example 27, (S)-2-Amino-3-[4-(4-{[(2-hydroxycarbamoyl-benzo[b]thiophen-6-ylmethyl)-amino]-methyl}-phenoxy)-phenyl]-propionic acid] | < 100 nM |  |  |  |  |  |  |
| N[C@@H](CC1CCC(Oc2ccc(CNCc3ccc4cc(C(=O)NO)sc4c3)cc2)CC1)C(=O)O (stereo partly drawn) [Example 29, 2-(S)-Amino-3-[4-(4-{[(2-hydroxycarbamoyl-benzo[b]thiophen-6-ylmethyl)-amino]-methyl}-phenoxy)-cyclohexyl]-propionic acid] | < 100 nM |  |  |  |  |  |  |
| NC(C(=O)O)C1CCC(Oc2ccc(CNCc3ccc4cc(C(=O)NO)sc4c3)cc2)CC1 (stereo not drawn) [Example 31, Amino-[4(4-{[(2-hydroxycarbamoyl-benzo[b]thiophen-6-ylmethyl)-amino]-methyl}-phenoxy)-cyclohexyl]-acetic acid] | < 100 nM |  |  |  |  |  |  |
